ChEMBL document CHEMBL3627696, “Pontemazines A and B, phenazine derivatives containing a methylamine linkage from Streptomyces sp. UT1123 and their protective effect to HT-22 neuronal cells” (2015)
The source made the active and inactive calls. The rule behind the calls is not given here.

Experiments:
[1] = system: HT-22; assay: Neuroprotective activity against monosodium glutamate-induced cell death in mouse HT22 cells assessed as cell viability at 10 uM preincubated for 2 hrs followed by monosodium glutamate addition measured after 24 hrs by MTT assay (reference value: 50%); type: functional; details: read-out: Activity
[2] = system: HT-22; assay: Neuroprotective activity against monosodium glutamate-induced cell death in mouse HT22 cells at 5 uM preincubated for 2 hrs followed by monosodium glutamate addition measured after 24 hrs by phase contrast microscopic analysis; type: functional, cell-based
[3] = system: HT-22; assay: Neuroprotective activity against monosodium glutamate-induced cell death in mouse HT22 cells at 10 uM preincubated for 2 hrs followed by monosodium glutamate addition measured after 24 hrs by phase contrast microscopic analysis; type: functional, cell-based
[4] = system: HT-22; assay: Neuroprotective activity against monosodium glutamate-induced cell death in mouse HT22 cells assessed as cell viability at 25 to 50 uM preincubated for 2 hrs followed by monosodium glutamate addition measured after 24 hrs by MTT assay (reference value: 50%); type: functional

Structure (SMILES) | viability at 10 µM [1] [%] | Activity [2] | Activity [3] | Activity [4] [%]
COc1ccc(CNc2ccccc2C(N)=O)c2nc3cccc(C(N)=O)c3nc12 | 90 | inactive | Active | –
COc1ccc(CNc2ccccc2C(N)=O)c2nc3cccc(C(=O)O)c3nc12 | 90 | inactive | Active | >90
